Test results published in publication PMC4903021 (Organic letters, 2016).

Target: T1, CazL (Chaetomium globosum, UniProt Q2GWL0)
T1 sequence (Q2GWL0 1-455): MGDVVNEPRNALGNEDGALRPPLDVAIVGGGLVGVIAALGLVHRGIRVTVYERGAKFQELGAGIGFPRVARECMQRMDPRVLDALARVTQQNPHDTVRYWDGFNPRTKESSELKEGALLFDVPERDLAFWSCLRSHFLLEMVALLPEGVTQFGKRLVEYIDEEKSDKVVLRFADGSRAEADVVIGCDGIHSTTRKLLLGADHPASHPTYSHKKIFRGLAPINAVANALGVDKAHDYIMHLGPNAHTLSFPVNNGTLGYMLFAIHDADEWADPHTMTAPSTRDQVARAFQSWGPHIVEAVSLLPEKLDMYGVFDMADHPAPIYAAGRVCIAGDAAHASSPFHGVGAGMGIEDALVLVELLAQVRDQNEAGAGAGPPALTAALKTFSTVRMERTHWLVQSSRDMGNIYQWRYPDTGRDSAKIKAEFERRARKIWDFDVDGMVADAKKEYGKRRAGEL
Experiment: initial velocity kinetics of pyranoquinone formation
Type: biochemical
Conditions: formation of 5

For cazaldehyde A [compound 1], the Km was 73 ± 9.93 µM.
